Measured values as given in patent US10280166B2, “2-(1H-indazol-3-yl)-3H-imidazo[4,5-B]pyridine and therapeutic uses thereof” (Samumed, LLC, priority 2014, dated 2019).

Columns and labels:
[1] = test system: Wnt activity (SW480 colon carcinoma cells stably expressing the Sp5-Luc reporter gene); experiment: Sp5-Luc reporter gene screening assay for Wnt activity in SW480 cells; format: cell-based; settings: Homo sapiens, 42 h incubation, luminescence
Text: The screening assay for Wnt activity is described as follows. Reporter cell lines can be generated by stably transducing cancer cell lines (e.g., colon cancer) or primary cells (e.g., IEC-6 intestinal cells) with a lentiviral construct that includes a Wnt-responsive promoter driving expression of the firefly luciferase gene.
SW480 colon carcinoma cells were transduced with a lentiviral vector expressing luciferase with a human Sp5 promoter consisting of a sequence of eight TCF/LEF binding sites. SW480 cells stably expressing the Sp5-Luc reporter gene and a hygromycin resistance gene were selected by treatment with 150 μg/ml of hygromycin for 7 days. These stably transduced SW480 cells were expanded in cell culture and used for all further screening activities. For Sp5-Luc reporter gene assays, the cells were plated at 10,000 cells/well in 96-well plates with growth medium containing 10% fetal calf serum and incubated overnight at 37° C. and 5% CO2. Each compound was dissolved in DMSO as a 10 mM stock in standard j-vials and used to prepare compound source plates in dose-response format with 3-fold serial dilutions and a 10 mM top concentration. Compound transfer from serially diluted source plates to assay plates containing the cells was accomplished using a pintool (Multimek 96, Beckman equipped with V&P Scientific FP1S50H pins) based liquid handling protocol. This protocol used a slotted pin to transfer 50 nl of compound from a source plate well to an assay plate well containing 50 μl of cells in growth medium. […] Control wells received 50 nl of DMSO treatment for normalization and calculating IC50 values. The treated cells were incubated at 37° C. and 5% CO2 for an additional forty-two hours. Following incubation, the growth medium was removed and 50 μl of BrightGlo luminescence reagent (Promega) was added to each well of the 96-well assay plates. The plates were placed on an orbital shaker for 5 min and then luminescence was quantified on the Victor3 (Perkin Elmer) plate reader. Readings were normalized to DMSO only treated cells, and normalized activities were utilized for IC50 calculations using the dose-response log (inhibitor) vs. response—variable slope (four parameters) nonlinear regression feature available in GraphPad Prism 5.0 or 6.0.

[2] = test system: primary human fibroblasts derived from IPF patients (LL29 cells); experiment: Inhibition of fibrosis (αSMA) in TGF-β1 treated primary human fibroblasts from IPF patients; format: cell-based; settings: Fibroblast, 96 h, TGF-β1 20 ng/mL, 4 days, % αSMA positive cells
Text: The above synthesized compounds were screened using primary human fibroblasts (derived from IPF patients) treated with TGF-β1 to determine their ability to inhibit the fibrotic process.
Primary human fibroblasts derived from IPF patients (LL29 cells) [^1Xiaoqiu Liu, et.al., “Fibrotic Lung Fibroblasts Show Blunted Inhibition by cAMP Due to Deficient cAMP Response Element-Binding Protein Phosphorylation”, Journal of Pharmacology and Experimental Therapeutics (2005), 315(2), 678-687; ^2Watts, K. L., et.al., “RhoA signaling modulates cyclin D1 expression in human lung fibroblasts; implications for idiopathic pulmonary fibrosis”, Respiratory Research (2006), 7(1), 88] were obtained from American Type Culture Collection (ATCC) and expanded in F12 medium supplemented with 15% Fetal Bovine Serum and Penicillin/Streptomycin.
Each compound was dissolved in DMSO as a 10 mM stock and used to prepare compound source plates. Serial dilution (1:2, 11-point dose-response curves from 10 μM to 1.87 nM) and compound transfer was performed using the ECHO 550 (Labcyte, Sunnyvale, Calif.) into 384-well clear bottom assay plates (Greiner Bio-One) with appropriate DMSO backfill for a final DMSO concentration of 0.1%. LL29 cells were plated at 1,500 cells/well in 80 μl/well F12 medium supplemented with 1% Fetal Bovine Serum. One hour after addition of the cells, TGF-β1 (Peprotech; 20 ng/mL) was added to the plates to induce fibrosis (ref. 1 and 2 above). Wells treated with TGF-β1 and containing DMSO were used as controls. Cells were incubated at 37° C. and 5% CO2 for 4 days. Following incubation for 4 days, SYTOX green nucleic acid stain (Life Technologies [Thermo Fisher Scientific]) was added to the wells at a final concentration of 1 uM and incubated at room temperature for 30 min. Cells were then fixed using 4% formaldehyde (Electron Microscopy Sciences), washed 3 times with PBS followed by blocking and permeabilization using 3% Bovine Serum Albumin (BSA; Sigma) and 0.3% Triton X-100 (Sigma) in PBS. Cells were then stained with antibody specific to α-smooth muscle actin (αSMA; Abcam) (ref. 1 and 2 above) in 3% Bovine Serum Albumin (BSA; Sigma) and 0.3% Triton X-100 (Sigma) in PBS, and incubated overnight at 4° C. Cells were then washed 3 times with PBS, followed by incubation with Alexa Flor-647 conjugated secondary antibody (Life Technologies [Thermo Fisher Scientific]) and DAPI at room temperature for 1 hour. Cells were then washed 3 times with PBS and plates were sealed for imaging. αSMA staining was imaged by excitation at 630 nm and emission at 665 nm and quantified using the Compartmental Analysis program on the CellInsight CX5 (Thermo Scientific). Dead or apoptotic cells were excluded from analysis based on positive SYTOX green staining. % of total cells positive for αSMA were counted in each well and normalized to the average of 11 wells treated with TGF-β1 on the same plate using Dotmatics' Studies Software. The normalized averages (fold change over untreated) of 3 replicate wells for each compound concentration were used to create dose-responses curves and EC50 values were calculated using non-linear regression curve fit in the Dotmatics' Studies Software. The EC50 values are reported.

Row | SMILES | IC50 [1] [nM] | EC50 [2] [nM]
1 | Fc1ccc(-c2ccnc3[nH]c(-c4n[nH]c5ccc(-c6cncnc6)cc45)nc23)cc1 [Compound 52, 7-(4-Fluorophenyl)-2-(5-(pyrimidin-5-yl)-1H-indazol-3-yl)-3H-imidazo[4,5-b]pyridine] | 25.6 | 1.25
2 | CN(C)c1cncc(-c2ccc3[nH]nc(-c4nc5c(-c6ccccc6F)ccnc5[nH]4)c3c2)c1 [Compound 59, 5-(3-(7-(2-Fluorophenyl)-3H-imidazo[4,5-b]pyridin-2-yl)-1H-indazol-5-yl)-N,N-dimethylpyridin-3-amine] | 31.9 | 0.009
3 | CC(C)C(=O)Nc1cncc(-c2ccc3[nH]nc(-c4nc5c(-c6ccccc6F)ccnc5[nH]4)c3c2)c1 [Compound 61, N-(5-(3-(7-(2-Fluorophenyl)-3H-imidazo[4,5-b]pyridin-2-yl)-1H-indazol-5-yl)pyridin-3-yl)isobutyramide] | 6 | 0.009
4 | O=C(Nc1cncc(-c2ccc3[nH]nc(-c4nc5c(-c6ccccc6F)ccnc5[nH]4)c3c2)c1)C1CC1 [Compound 71, N-(5-(3-(7-(2-Fluorophenyl)-3H-imidazo[4,5-b]pyridin-2-yl)-1H-indazol-5-yl)pyridin-3-yl)cyclopropanecarboxamide] | 11.1 | 9.99
5 | O=C(Nc1cncc(-c2ccc3[nH]nc(-c4nc5c(-c6ccccc6F)ccnc5[nH]4)c3c2)c1)C1CCCC1 [Compound 73, N-(5-(3-(7-(2-Fluorophenyl)-3H-imidazo[4,5-b]pyridin-2-yl)-1H-indazol-5-yl)pyridin-3-yl)cyclopentanecarboxamide] | 13 | 0.379
6 | Nc1cncc(-c2ccc3[nH]nc(-c4nc5c(-c6cccnc6)ccnc5[nH]4)c3c2)c1 [Compound 81, 5-(3-(7-(Pyridin-3-yl)-3H-imidazo[4,5-b]pyridin-2-yl)-1H-indazol-5-yl)pyridin-3-amine] | 5.8 | 0.009
7 | CC(C)Nc1cncc(-c2ccc3[nH]nc(-c4nc5c(-c6cccnc6)ccnc5[nH]4)c3c2)c1 [Compound 90, N-isopropyl-5-(3-(7-(pyridin-3-yl)-3H-imidazo[4,5-b]pyridin-2-yl)-1H-indazol-5-yl)pyridin-3-amine] | 12 | 0.078
8 | c1cncc(-c2ccnc3[nH]c(-c4n[nH]c5ccc(-c6cncc(CN7CCCCC7)c6)cc45)nc23)c1 [Compound 93, 2-(5-(5-(Piperidin-1-ylmethyl)pyridin-3-yl)-1H-indazol-3-yl)-7-(pyridin-3-yl)-3H-imidazo[4,5-b]pyridine] | > 10000 | 0.016
9 | c1ccc(CNCc2cncc(-c3ccc4[nH]nc(-c5nc6c(-c7cccnc7)ccnc6[nH]5)c4c3)c2)cc1 [Compound 101, N-Benzyl-1-(5-(3-(7-(pyridin-3-yl)-3H-imidazo[4,5-b]pyridin-2-yl)-1H-indazol-5-yl)pyridin-3-yl)methanamine] | > 10000 | 0.235
10 | CCNCc1cncc(-c2ccc3[nH]nc(-c4nc5c(-c6ccccn6)ccnc5[nH]4)c3c2)c1 [Compound 136, N-((5-(3-(7-(Pyridin-2-yl)-3H-imidazo[4,5-b]pyridin-2-yl)-1H-indazol-5-yl)pyridin-3-yl)methyl)ethanamine] | 1550 | 1.77
11 | O=C(Nc1cncc(-c2ccc3[nH]nc(-c4nc5c(-c6ccccn6)ccnc5[nH]4)c3c2)c1)c1ccccc1 [Compound 141, N-(5-(3-(7-(Pyridin-2-yl)-3H-imidazo[4,5-b]pyridin-2-yl)-1H-indazol-5-yl)pyridin-3-yl)benzamide] | 13.7 | 9.99
12 | O=C(Nc1cncc(-c2ccc3[nH]nc(-c4nc5c(-c6ccccn6)ccnc5[nH]4)c3c2)c1)C1CCC1 [Compound 150, N-(5-(3-(7-(Pyridin-2-yl)-3H-imidazo[4,5-b]pyridin-2-yl)-1H-indazol-5-yl)pyridin-3-yl)cyclobutanecarboxamide] | 15 | 0.133
13 | c1ccc(-c2ccnc3[nH]c(-c4n[nH]c5ccc(-c6cncc(CNCC7CCCC7)c6)cc45)nc23)nc1 [Compound 154, 1-Cyclopentyl-N-((5-(3-(7-(pyridin-2-yl)-3H-imidazo[4,5-b]pyridin-2-yl)-1H-indazol-5-yl)pyridin-3-yl)methyl)methanamine] | 1460 | 9.99
14 | CCC(=O)Nc1cncc(-c2ccc3[nH]nc(-c4nc5c(N6CCCCC6)ccnc5[nH]4)c3c2)c1 [Compound 157, N-(5-(3-(7-(Piperidin-1-yl)-3H-imidazo[4,5-b]pyridin-2-yl)-1H-indazol-5-yl)pyridin-3-yl)propionamide] | 15 | 0.605
15 | CN(C)c1cncc(-c2ccc3[nH]nc(-c4nc5c(N6CCCCC6)ccnc5[nH]4)c3c2)c1 [Compound 163, N,N-Dimethyl-5-(3-(7-(piperidin-1-yl)-3H-imidazo[4,5-b]pyridin-2-yl)-1H-indazol-5-yl)pyridin-3-amine] | 122 | 0.009
16 | CN(C)Cc1cncc(-c2ccc3[nH]nc(-c4nc5c(N6CCCCC6)ccnc5[nH]4)c3c2)c1 [Compound 169, N,N-Dimethyl-1-(5-(3-(7-(piperidin-1-yl)-3H-imidazo[4,5-b]pyridin-2-yl)-1H-indazol-5-yl)pyridin-3-yl)methanamine] | 1450 | 0.396
17 | O=C(Nc1cncc(-c2ccc3[nH]nc(-c4nc5c(N6CCCCC6)ccnc5[nH]4)c3c2)c1)C1CC1 [Compound 175, N-(5-(3-(7-(Piperidin-1-yl)-3H-imidazo[4,5-b]pyridin-2-yl)-1H-indazol-5-yl)pyridin-3-yl)cyclopropanecarboxamide] | 99.3 | 9.99
18 | FC1(F)CCN(Cc2cncc(-c3ccc4[nH]nc(-c5nc6c(N7CCCCC7)ccnc6[nH]5)c4c3)c2)C1 [Compound 181, 2-(5-(5-((3,3-Difluoropyrrolidin-1-yl)methyl)pyridin-3-yl)-1H-indazol-3-yl)-7-(piperidin-1-yl)-3H-imidazo[4,5-b]pyridine] | 2580 | 0.009
19 | Cc1cn(-c2ccnc3[nH]c(-c4n[nH]c5ccc(-c6cncc(NC(=O)C(C)(C)C)c6)cc45)nc23)cn1 [Compound 190, N-(5-(3-(7-(4-Methyl-1H-imidazol-1-yl)-3H-imidazo[4,5-b]pyridin-2-yl)-1H-indazol-5-yl)pyridin-3-yl)pivalamide] | 7.4 | 0.009
20 | Cc1cn(-c2ccnc3[nH]c(-c4n[nH]c5ccc(-c6cncc(NC(=O)C7CCC7)c6)cc45)nc23)cn1 [Compound 202, N-(5-(3-(7-(4-Methyl-1H-imidazol-1-yl)-3H-imidazo[4,5-b]pyridin-2-yl)-1H-indazol-5-yl)pyridin-3-yl)cyclobutanecarboxamide] | 4.7 | 0.018
